# Test results: the supplement of paper PMC11628255, “Interference of metal ions on the bioluminescent signal of firefly, Renilla, and NanoLuc luciferases in high-throughput screening assays” (Frontiers in Chemistry, 2024)
# ± gives the standard deviation of the averaged measurements.
# Tested on: Renilla luciferase (RLuc)
# Test: normalised percent inhibition of luminescence (vs positive and negative controls); higher = stronger inhibition
# Conditions: metal salt concentration 0.002 mM; screening conditions buffer
# Description: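 Concentration-response (>=11 concentrations) of metal salts on purified FLuc, NLuc or RLuc luminescence in screening (SC) or 100 mM HEPES (H) buffer; salt pre-incubated with enzyme 10 min at RT, read 10 min after substrate. Normalised percent inhibition vs plate positive (PTC-124, isradipine, BTS) and DMSO negative controls; triplicate wells.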
row,SMILES,normalised percent inhibition [%]
1,[Cl][Sn][Cl] [tin(II) chloride],2.49 ± 5.6
2,O=S(=O)([O-])[O-].[Fe+2] [iron(II) sulfate],2.02 ± 10
3,O=[N+]([O-])[O-].O=[N+]([O-])[O-].[Pb+2] [lead(II) nitrate],-20.9 ± 12
4,O=[N+]([O-])[O-].O=[N+]([O-])[O-].[Zn+2] [zinc nitrate],-5.83 ± 5.5
5,O=[N+]([O-])[O-].[Ag+] [silver nitrate],10.7 ± 8.6
6,CC#N.CC#N.CC#N.CC#N.F[B-](F)(F)F.[Cu+] [tetrakis(acetonitrile)copper(I) tetrafluoroborate],12.9 ± 12

# Same assay, conditions: metal salt concentration 0.005 mM; screening conditions buffer
row,SMILES,normalised percent inhibition [%]
1,O=[N+]([O-])[O-].O=[N+]([O-])[O-].[Cd+2] [cadmium nitrate],-5.21 ± 8.8
2,[Cl][Sn][Cl] [tin(II) chloride],-3.55 ± 14
3,O=S(=O)([O-])[O-].[Fe+2] [iron(II) sulfate],11 ± 4.1
4,O=[N+]([O-])[O-].O=[N+]([O-])[O-].[Pb+2] [lead(II) nitrate],-16.2 ± 4.1
5,O=[N+]([O-])[O-].O=[N+]([O-])[O-].[Zn+2] [zinc nitrate],-7.07 ± 11
6,O=[N+]([O-])[O-].[Ag+] [silver nitrate],8.28 ± 9.9
7,CC#N.CC#N.CC#N.CC#N.F[B-](F)(F)F.[Cu+] [tetrakis(acetonitrile)copper(I) tetrafluoroborate],16.7 ± 4.2

# Same assay, conditions: metal salt concentration 0.01 mM; 100 mM HEPES buffer
row,SMILES,normalised percent inhibition [%]
1,O=[N+]([O-])[O-].[Ag+] [silver nitrate],-3.09 ± 29

# Same assay, conditions: metal salt concentration 0.01 mM; screening conditions buffer
row,SMILES,normalised percent inhibition [%]
1,O=[N+]([O-])[O-].O=[N+]([O-])[O-].[Cd+2] [cadmium nitrate],-13.5 ± 18
2,[Cl][Sn][Cl] [tin(II) chloride],13.4 ± 4.1
3,O=S(=O)([O-])[O-].[Fe+2] [iron(II) sulfate],18.2 ± 2.5
4,O=[N+]([O-])[O-].O=[N+]([O-])[O-].[Pb+2] [lead(II) nitrate],-2.6 ± 1.9
5,O=[N+]([O-])[O-].O=[N+]([O-])[O-].[Zn+2] [zinc nitrate],-4.95 ± 6.5
6,O=[N+]([O-])[O-].[Ag+] [silver nitrate],13 ± 3.1
7,CC#N.CC#N.CC#N.CC#N.F[B-](F)(F)F.[Cu+] [tetrakis(acetonitrile)copper(I) tetrafluoroborate],11.3 ± 1.8

# Same assay, conditions: metal salt concentration 0.02 mM; 100 mM HEPES buffer
row,SMILES,normalised percent inhibition [%]
1,O=[N+]([O-])[O-].[Ag+] [silver nitrate],-4.38 ± 18

# Same assay, conditions: metal salt concentration 0.02 mM; screening conditions buffer
row,SMILES,normalised percent inhibition [%]
1,O=[N+]([O-])[O-].O=[N+]([O-])[O-].[Cd+2] [cadmium nitrate],-3.71 ± 6.7
2,[Cl][Sn][Cl] [tin(II) chloride],-6.49 ± 5.1
3,O=S(=O)([O-])[O-].[Fe+2] [iron(II) sulfate],17.5 ± 9.7
4,O=[N+]([O-])[O-].O=[N+]([O-])[O-].[Pb+2] [lead(II) nitrate],-5.61 ± 4.4
5,O=[N+]([O-])[O-].O=[N+]([O-])[O-].[Zn+2] [zinc nitrate],-5.53 ± 0.89
6,O=[N+]([O-])[O-].[Ag+] [silver nitrate],14.2 ± 12
7,CC#N.CC#N.CC#N.CC#N.F[B-](F)(F)F.[Cu+] [tetrakis(acetonitrile)copper(I) tetrafluoroborate],2.75 ± 5

# Same assay, conditions: metal salt concentration 0.025 mM; 100 mM HEPES buffer
row,SMILES,normalised percent inhibition [%]
1,O=[N+]([O-])[O-].O=[N+]([O-])[O-].[Cd+2] [cadmium nitrate],-16 ± 26
2,[Cl][Sn][Cl] [tin(II) chloride],-15.8 ± 19
3,O=S(=O)([O-])[O-].[Fe+2] [iron(II) sulfate],28.6 ± 12
4,O.O.O.O.O.O.O.O=S(=O)([O-])[O-].[Mg+2] [magnesium sulfate],-30.1 ± 5
5,O=[N+]([O-])[O-].[Ag+] [silver nitrate],84.8 ± 8.2
6,CC#N.CC#N.CC#N.CC#N.F[B-](F)(F)F.[Cu+] [tetrakis(acetonitrile)copper(I) tetrafluoroborate],75.8 ± 10

# Same assay, conditions: metal salt concentration 0.04 mM; 100 mM HEPES buffer
row,SMILES,normalised percent inhibition [%]
1,O=[N+]([O-])[O-].[Ag+] [silver nitrate],47.3 ± 12

# Same assay, conditions: metal salt concentration 0.05 mM; 100 mM HEPES buffer
row,SMILES,normalised percent inhibition [%]
1,O=[N+]([O-])[O-].O=[N+]([O-])[O-].[Cd+2] [cadmium nitrate],-20.9 ± 10
2,[Cl][Sn][Cl] [tin(II) chloride],-15 ± 8.5
3,O=S(=O)([O-])[O-].[Fe+2] [iron(II) sulfate],50.9 ± 12
4,O.O.O.O.O.O.O.O=S(=O)([O-])[O-].[Mg+2] [magnesium sulfate],-11.6 ± 8.6
5,O=[N+]([O-])[O-].[Ag+] [silver nitrate],104 ± 3.7
6,CC#N.CC#N.CC#N.CC#N.F[B-](F)(F)F.[Cu+] [tetrakis(acetonitrile)copper(I) tetrafluoroborate],102 ± 4

# Same assay, conditions: metal salt concentration 0.05 mM; screening conditions buffer
row,SMILES,normalised percent inhibition [%]
1,O=[N+]([O-])[O-].O=[N+]([O-])[O-].[Cd+2] [cadmium nitrate],-1.96 ± 5.9
2,[Cl][Sn][Cl] [tin(II) chloride],-5.21 ± 12
3,O=S(=O)([O-])[O-].[Fe+2] [iron(II) sulfate],3.55 ± 9.2
4,O=[N+]([O-])[O-].O=[N+]([O-])[O-].[Pb+2] [lead(II) nitrate],-11.8 ± 16
5,O=[N+]([O-])[O-].O=[N+]([O-])[O-].[Zn+2] [zinc nitrate],-2.83 ± 13
6,O=[N+]([O-])[O-].[Ag+] [silver nitrate],38.8 ± 7.9
7,CC#N.CC#N.CC#N.CC#N.F[B-](F)(F)F.[Cu+] [tetrakis(acetonitrile)copper(I) tetrafluoroborate],13.4 ± 7.8

# Same assay, conditions: metal salt concentration 0.1 mM; 100 mM HEPES buffer
row,SMILES,normalised percent inhibition [%]
1,O=[N+]([O-])[O-].O=[N+]([O-])[O-].[Cd+2] [cadmium nitrate],18 ± 7.5
2,[Cl][Sn][Cl] [tin(II) chloride],-35 ± 10
3,O=S(=O)([O-])[O-].[Fe+2] [iron(II) sulfate],85.8 ± 11
4,O.O.O.O.O.O.O.O=S(=O)([O-])[O-].[Mg+2] [magnesium sulfate],-22.7 ± 9.3
5,O=[N+]([O-])[O-].[Ag+] [silver nitrate],107 ± 1.2
6,CC#N.CC#N.CC#N.CC#N.F[B-](F)(F)F.[Cu+] [tetrakis(acetonitrile)copper(I) tetrafluoroborate],105 ± 1.1

# Same assay, conditions: metal salt concentration 0.1 mM; screening conditions buffer
row,SMILES,normalised percent inhibition [%]
1,O=[N+]([O-])[O-].O=[N+]([O-])[O-].[Cd+2] [cadmium nitrate],-1.09 ± 6.9
